From US11857663B2, “Stable silk protein fragment compositions” (Evolved By Nature, Inc., priority 2013, dated 2024)

Assay: HPLC chromatograms of samples comprising vitamin C (degradation products)
Type: physicochemical
Settings: after 1 hour at ambient conditions without chemical stabilization
Procedure: FIGS. 36A and 36B show two HPLC chromatograms from samples comprising vitamin C. […] No degradation products were visible. FIG. 59 is a table summarizing the vitamin C concentration in silk protein fragment-films (2% silk films air dried at RT) of the present disclosure. In FIG. 59 processing conditions included 100° C. extraction for 20 min, RT rinse, LiBr in 60° C. oven for 4-6 hours. FIG. 60 is arable summarizing the stability of vitamin C in chemically stabilized solutions. FIGS. 89A-89B are tables summarizing vitamin C stability in SPF gels without chemical stabilizers as compared to chemically stabilized vitamin C in competitive anti-aging skincare products. […] Without wishing to be bound by theory, it appears there is a relationship between vitamin C concentration, silk concentration, and gelation. An increase in vitamin C at a given concentration of silk will result in a longer time to gelation or inhibit gelation. This may be due to the vitamin C molecule physically blocking interaction between silk protein fragments or cross-linking of silk protein.

O=C1O[C@H]([C@@H](O)CO)C(O)=C1O [vitamin C, L-ascorbic acid]
degradation products of vitamin C: degradation products are visible
